Consider nine compounds from the NIST ThermoML archive (doi:10.1021/acs.jced.8b00939).

The conditions of data set [1]: 298.15 K, 100 kPa, Liquid; for viscosity: Falling or rolling sphere viscometry; for mass density: Vibrating tube method.
The nature of data set [2]: wn = mass fraction of the nth substance listed. Particulars: 298.2 K, 100 kPa, Liquid; for viscosity: Falling or rolling sphere viscometry; for mass density: Vibrating tube method.
Data set [3] in a line: xn = mol fraction of the nth substance listed. Conditions: 298.2 K, 100 kPa, Liquid, x1 = 0.0843.

Numbers after ± are expanded uncertainties.

By viscosity is commonly meant the resistance of a fluid to flow. One may read the mass density as the mass of a sample divided by its volume.

`C=C(C)[C@H]1CC=C(C)CC1` [(R)-1-methyl-4-(1-methylethenyl)cyclohexene]: in data set [1], the viscosity is 0.87 ± 0.01 mPa·s and the mass density is on record as 839.1 ± 1.7 kg/m3.
Consider `O` [water], for which the viscosity in data set [1] is reported as 0.89 ± 0.01 mPa·s.
With `CCO` [ethanol] + O, the viscosity in data set [2] (w2 = 0.061) came out at 1.31 ± 0.02 mPa·s; in data set [2] (w2 = 0.124) it was 1.46 ± 0.02 mPa·s; in data set [2] (w2 = 0.172), 1.64 ± 0.04 mPa·s; in data set [2] (w2 = 0.233), 1.8 ± 0.03 mPa·s; in data set [2] (w2 = 0.276) it was 1.87 ± 0.02 mPa·s; in data set [2] (w2 = 0.34) it was 1.9 ± 0.1 mPa·s. Also, the viscosity in data set [2] (w2 = 0.41) is given as 2.19 ± 0.15 mPa·s; in data set [2] (w2 = 0.5) it was 2.31 ± 0.03 mPa·s; in data set [2] (w2 = 0.62), 2.34 ± 0.02 mPa·s. Besides, the mass density in data set [2] (w2 = 0.061) amounted to 802.5 ± 1.9 kg/m3; in data set [2] (w2 = 0.124), 819.5 ± 2 kg/m3; in data set [2] (w2 = 0.172), 833.4 ± 3.1 kg/m3; in data set [2] (w2 = 0.233), 848.2 ± 3.3 kg/m3; in data set [2] (w2 = 0.276), 857.9 ± 2.6 kg/m3; in data set [2] (w2 = 0.34) it was 861.8 ± 9 kg/m3. The mass density in data set [2] (w2 = 0.41) turned out to be 887.3 ± 18 kg/m3; in data set [2] (w2 = 0.5) it was 908.8 ± 4.9 kg/m3; in data set [2] (w2 = 0.62), 935.2 ± 9 kg/m3.
On to `C=CCc1ccc(OC)c(OC)c1` [methyleugenol], for which, in data set [1], the viscosity came to 4.23 ± 0.04 mPa·s and the mass density is 1031 ± 2 kg/m3.
For `C=CCc1ccc(O)c(OC)c1` [2-hydroxy-5-allylanisole], in that order: 6.98 ± 0.08 mPa·s and 1062 ± 2 kg/m3.
The corresponding values for `C=CC(C)(O)CCC=C(C)C` (stereo not drawn) [3,7-dimethyl-1,6-octadien-3-ol] are 4.35 ± 0.05 mPa·s and 857.3 ± 1.7 kg/m3.
With `C/C1=C\CC/C(C)=C/CC(C)(C)/C=C/C1` [(E,E,E)-2,6,6,9-tetramethyl-1,4,8-cycloundecatriene] + C=C1CC/C=C(\C)CC[C@@H]2[C@@H]1CC2(C)C, in data set [3] (Falling or rolling sphere viscometry), the viscosity is reported as 5.87 ± 0.07 mPa·s. Also, in data set [3] (Vibrating tube method), the mass density amounted to 897.1 ± 1.8 kg/m3.
For the compound `CCO` [ethanol], in data set [1], the viscosity worked out at 1.13 ± 0.01 mPa·s and the mass density is recorded as 785.1 ± 1.6 kg/m3.
For `C=CC(C)(CCC=C(C)C)OC(C)=O` (stereo not drawn) [linalool acetate], in that order: 2.3 ± 0.03 mPa·s and 898.6 ± 1.8 kg/m3.
